16 molecules from ChEMBL document CHEMBL6127078, “Discovery of 7-(1-methyl-1H-pyrazol-4-yl)-1,6-naphthyridine derivatives as potent inhibitors of rearranged during transfection (RET) and RET solvent-front mutants for overcoming selpercatinib resistance” (Eur J Med Chem, 2024) can be followed below.

Broadly, the IC50 is the concentration that inhibits the measured activity by half. The low end stands for greater potency, the high end for weaker potency.

Molecules are shown by their SMILES. Some results are limits rather than exact numbers.

The target of one assay is Proto-oncogene tyrosine-protein kinase receptor Ret (Homo sapiens, UniProt P07949). The assay can be described thus: Inhibition of wild type RET (unknown origin) by FRET-based ZLyte kinase assay.
Chain of Proto-oncogene tyrosine-protein kinase receptor Ret (Homo sapiens, UniProt P07949) (P07949 whole entry): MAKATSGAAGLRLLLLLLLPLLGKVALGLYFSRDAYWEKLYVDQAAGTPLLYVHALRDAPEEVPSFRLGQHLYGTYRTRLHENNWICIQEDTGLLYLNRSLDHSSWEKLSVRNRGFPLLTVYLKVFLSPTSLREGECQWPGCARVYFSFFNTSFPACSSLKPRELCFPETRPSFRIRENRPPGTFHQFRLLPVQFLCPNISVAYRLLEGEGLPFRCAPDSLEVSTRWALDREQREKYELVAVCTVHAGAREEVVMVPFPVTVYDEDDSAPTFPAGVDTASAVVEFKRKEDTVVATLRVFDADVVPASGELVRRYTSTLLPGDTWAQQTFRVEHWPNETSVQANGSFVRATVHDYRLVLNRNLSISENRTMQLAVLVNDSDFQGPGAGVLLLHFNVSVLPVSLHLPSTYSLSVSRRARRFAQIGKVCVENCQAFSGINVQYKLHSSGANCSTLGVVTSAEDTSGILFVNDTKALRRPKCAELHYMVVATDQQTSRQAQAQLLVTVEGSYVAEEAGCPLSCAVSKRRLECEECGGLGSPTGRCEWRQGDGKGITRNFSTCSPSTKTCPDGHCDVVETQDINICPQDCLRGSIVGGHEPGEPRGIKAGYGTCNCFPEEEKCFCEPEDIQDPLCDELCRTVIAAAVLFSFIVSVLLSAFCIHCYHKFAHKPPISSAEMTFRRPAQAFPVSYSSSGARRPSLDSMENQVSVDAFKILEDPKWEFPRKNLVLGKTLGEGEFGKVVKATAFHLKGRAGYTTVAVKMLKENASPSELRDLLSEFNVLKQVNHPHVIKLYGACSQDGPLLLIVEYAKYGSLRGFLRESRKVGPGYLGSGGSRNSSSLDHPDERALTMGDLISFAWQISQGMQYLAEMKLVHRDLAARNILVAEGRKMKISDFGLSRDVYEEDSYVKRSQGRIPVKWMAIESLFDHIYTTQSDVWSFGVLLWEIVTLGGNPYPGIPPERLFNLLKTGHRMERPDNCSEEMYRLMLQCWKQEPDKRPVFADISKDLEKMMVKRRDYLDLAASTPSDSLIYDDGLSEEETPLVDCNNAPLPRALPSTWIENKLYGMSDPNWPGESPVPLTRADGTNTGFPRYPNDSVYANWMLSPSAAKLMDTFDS
With `COc1ccc(CN2C3CC2CN(c2ccc(-c4nc(C5CC5)cc5ncccc45)cn2)C3)cn1`, 15.7 nM corresponded to half-maximal inhibition (IC50).

As to `COc1ccc(CN2C3CC2CN(c2ccc(-c4cccc5ncccc45)cn2)C3)cn1`, the IC50 was 198 nM.

Consider `COc1ccc(CN2C3CC2CN(c2ccc(-c4nc(-c5cc[nH]n5)cc5ncccc45)cn2)C3)cn1`, for which the 50% inhibitory concentration (IC50) was found to be 68.2 nM.

`Cn1cc(-c2cc3ncccc3c(-c3ccc(N4CC5CC(C4)N5Cc4ccc(Cl)nc4)nc3)n2)cn1` returned an IC50 of 9.8 nM.

The molecule `COc1ccc(CN2C3CC2CN(c2ccc(-c4nc(-c5cnn(C)c5)cc5ncccc45)cn2)C3)cc1Br` came in with an IC50 of 41.3 nM.

`COc1ccc(CN2C3CC2CN(c2ccc(-c4cccc5c4OCCO5)cn2)C3)cn1` showed a concentration for half-maximal inhibition (IC50) above 1000 nM.

As for `COc1ccc(CN2C3CC2CN(c2ccc(-c4nc(-c5cn[nH]c5)cc5ncccc45)cn2)C3)cn1`, the IC50 was 5.9 nM.

For `COc1ccc(CN2C3CC2CN(c2ccc(-c4nc(-c5ccncc5)cc5ncccc45)cn2)C3)cn1`, the midpoint of inhibition, the IC50, lay at 166 nM.

`COc1ccc(CN2C3CC2CN(c2ccc(-c4nc(Cl)cc5ncccc45)cn2)C3)cn1` showed an IC50 of 69.3 nM.

`Cn1cc(-c2cc3ncccc3c(-c3ccc(N4CC5CC(C4)N5C(=O)Cc4cccc(Cl)c4)nc3)n2)cn1`: it took 9.1 nM to reach half-maximal inhibition (IC50).

For `Cn1cc(-c2cc3ncccc3c(-c3ccc(N4CC5CC(C4)N5Cc4ccc(F)nc4)nc3)n2)cn1`, the IC50 came out at 16.8 nM.

Turning to `COc1ccc(CN2C3CC2CN(c2ccc(-c4nc(-c5cnn(C)c5)cc5ncccc45)cn2)C3)cc1N`, the IC50 was found to be 166 nM.

For `COc1ccc(CN2C3CC2CN(c2ccc(-c4nc(-c5cnn(C)c5)cc5ncccc45)cn2)C3)cc1C(F)(F)F`, the IC50 was 37.5 nM.

With `COc1ccc(CN2C3CC2CN(c2ccc(-c4nccc5ncccc45)cn2)C3)cn1`, half-maximal inhibition (IC50) was put at 57.6 nM.

Take `Cn1cc(-c2cc3ncccc3c(-c3ccc(N4CC5CC(C4)N5C(=O)CN4CCOCC4)nc3)n2)cn1`: the midpoint of inhibition, the IC50, lay at 112 nM.

`COc1ccc(CN2C3CC2CN(c2ccc(-c4nc(-c5cnn(C)c5)cc5ncccc45)cn2)C3)cc1`: the IC50 came to 7.6 nM.

For another assay, the target named is Proto-oncogene tyrosine-protein kinase receptor Ret (Homo sapiens, UniProt P07949, V804L). The assay can be described thus: Inhibition of RET V804L mutant (unknown origin) by FRET-based ZLyte kinase assay.
Chain of Proto-oncogene tyrosine-protein kinase receptor Ret (Homo sapiens, UniProt P07949, V804L) (P07949 29-1114 V804L limits assumed): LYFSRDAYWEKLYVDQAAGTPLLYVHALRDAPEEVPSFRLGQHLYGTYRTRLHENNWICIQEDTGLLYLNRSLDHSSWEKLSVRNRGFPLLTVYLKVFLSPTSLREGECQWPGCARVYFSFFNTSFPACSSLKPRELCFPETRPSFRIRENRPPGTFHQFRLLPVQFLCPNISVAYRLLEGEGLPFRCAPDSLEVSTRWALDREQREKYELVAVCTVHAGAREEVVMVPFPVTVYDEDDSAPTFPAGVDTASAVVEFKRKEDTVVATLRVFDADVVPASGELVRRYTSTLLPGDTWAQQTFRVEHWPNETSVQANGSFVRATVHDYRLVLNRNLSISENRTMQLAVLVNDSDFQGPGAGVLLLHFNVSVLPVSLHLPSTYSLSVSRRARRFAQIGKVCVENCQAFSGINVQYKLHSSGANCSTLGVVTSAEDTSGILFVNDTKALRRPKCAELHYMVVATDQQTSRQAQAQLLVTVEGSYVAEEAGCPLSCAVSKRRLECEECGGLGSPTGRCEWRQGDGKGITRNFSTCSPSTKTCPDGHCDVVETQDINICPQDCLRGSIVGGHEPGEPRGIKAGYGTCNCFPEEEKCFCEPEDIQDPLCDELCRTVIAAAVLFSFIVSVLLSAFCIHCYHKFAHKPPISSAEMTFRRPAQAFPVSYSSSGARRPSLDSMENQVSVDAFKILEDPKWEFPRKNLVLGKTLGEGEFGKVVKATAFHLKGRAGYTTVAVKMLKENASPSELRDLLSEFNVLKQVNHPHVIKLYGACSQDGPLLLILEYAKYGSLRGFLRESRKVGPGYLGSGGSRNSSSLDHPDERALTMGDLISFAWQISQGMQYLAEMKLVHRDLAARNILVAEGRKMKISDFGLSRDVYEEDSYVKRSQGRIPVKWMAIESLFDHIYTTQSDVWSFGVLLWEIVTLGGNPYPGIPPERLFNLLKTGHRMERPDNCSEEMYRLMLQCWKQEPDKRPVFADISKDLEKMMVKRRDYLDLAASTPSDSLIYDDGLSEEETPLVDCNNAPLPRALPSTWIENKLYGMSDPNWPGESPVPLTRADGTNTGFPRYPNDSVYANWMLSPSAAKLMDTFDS
In turn, `COc1ccc(CN2C3CC2CN(c2ccc(-c4nc(C5CC5)cc5ncccc45)cn2)C3)cn1` returned an IC50 of 12.5 nM.

Regarding `COc1ccc(CN2C3CC2CN(c2ccc(-c4cccc5ncccc45)cn2)C3)cn1`, the IC50 stood at 285 nM.

Molecule `COc1ccc(CN2C3CC2CN(c2ccc(-c4nc(-c5cc[nH]n5)cc5ncccc45)cn2)C3)cn1` returned a 50% inhibitory concentration (IC50) of 55.7 nM.

`Cn1cc(-c2cc3ncccc3c(-c3ccc(N4CC5CC(C4)N5Cc4ccc(Cl)nc4)nc3)n2)cn1` showed an IC50 of 2.3 nM.

For the molecule `COc1ccc(CN2C3CC2CN(c2ccc(-c4nc(-c5cnn(C)c5)cc5ncccc45)cn2)C3)cc1Br`, the IC50 turned out to be 13.7 nM.

The molecule `COc1ccc(CN2C3CC2CN(c2ccc(-c4cccc5c4OCCO5)cn2)C3)cn1` displayed an IC50 above 1000 nM.

For the molecule `COc1ccc(CN2C3CC2CN(c2ccc(-c4nc(-c5cn[nH]c5)cc5ncccc45)cn2)C3)cn1`, 1.1 nM corresponded to half-maximal inhibition (IC50).

With `COc1ccc(CN2C3CC2CN(c2ccc(-c4nc(-c5ccncc5)cc5ncccc45)cn2)C3)cn1`, the IC50 was 328 nM.

`COc1ccc(CN2C3CC2CN(c2ccc(-c4nc(Cl)cc5ncccc45)cn2)C3)cn1` returned an IC50 of 57.2 nM.

The molecule `Cn1cc(-c2cc3ncccc3c(-c3ccc(N4CC5CC(C4)N5C(=O)Cc4cccc(Cl)c4)nc3)n2)cn1` came in with an IC50 of 4 nM.

Take `Cn1cc(-c2cc3ncccc3c(-c3ccc(N4CC5CC(C4)N5Cc4ccc(F)nc4)nc3)n2)cn1`: inhibition was half-maximal at 5.6 nM (IC50).

Molecule `COc1ccc(CN2C3CC2CN(c2ccc(-c4nc(-c5cnn(C)c5)cc5ncccc45)cn2)C3)cc1N` returned an IC50 of 86.4 nM.

The molecule `COc1ccc(CN2C3CC2CN(c2ccc(-c4nc(-c5cnn(C)c5)cc5ncccc45)cn2)C3)cc1C(F)(F)F` showed an IC50 of 22.6 nM.

`COc1ccc(CN2C3CC2CN(c2ccc(-c4nccc5ncccc45)cn2)C3)cn1` displayed an IC50 of 42.2 nM.

Turning to `Cn1cc(-c2cc3ncccc3c(-c3ccc(N4CC5CC(C4)N5C(=O)CN4CCOCC4)nc3)n2)cn1`, the IC50 came to 121 nM.

Consider `COc1ccc(CN2C3CC2CN(c2ccc(-c4nc(-c5cnn(C)c5)cc5ncccc45)cn2)C3)cc1`, for which inhibition was half-maximal at 3.1 nM (IC50).

The target of the next assay is Proto-oncogene tyrosine-protein kinase receptor Ret (Homo sapiens, UniProt P07949, M918T). The assay can be described thus: Inhibition of RET M918T mutant (unknown origin) by FRET-based ZLyte kinase assay.
Chain of Proto-oncogene tyrosine-protein kinase receptor Ret (Homo sapiens, UniProt P07949, M918T) (P07949 29-1114 M918T limits assumed): as the sequence (P07949 29-1114 V804L limits assumed) above, with L776V, M890T counted along it
Molecule `COc1ccc(CN2C3CC2CN(c2ccc(-c4nc(C5CC5)cc5ncccc45)cn2)C3)cn1` registered an IC50 of 17.3 nM.

As for `COc1ccc(CN2C3CC2CN(c2ccc(-c4cccc5ncccc45)cn2)C3)cn1`, the IC50 is 304 nM.

Take `COc1ccc(CN2C3CC2CN(c2ccc(-c4nc(-c5cc[nH]n5)cc5ncccc45)cn2)C3)cn1`: the IC50 was 49.7 nM.

Regarding `Cn1cc(-c2cc3ncccc3c(-c3ccc(N4CC5CC(C4)N5Cc4ccc(Cl)nc4)nc3)n2)cn1`, it took 5.1 nM to reach half-maximal inhibition (IC50).

`COc1ccc(CN2C3CC2CN(c2ccc(-c4nc(-c5cnn(C)c5)cc5ncccc45)cn2)C3)cc1Br` gave an IC50 of 17.2 nM.

As to `COc1ccc(CN2C3CC2CN(c2ccc(-c4cccc5c4OCCO5)cn2)C3)cn1`, the IC50 was above 1000 nM.

Regarding `COc1ccc(CN2C3CC2CN(c2ccc(-c4nc(-c5cn[nH]c5)cc5ncccc45)cn2)C3)cn1`, the IC50 worked out at 6.5 nM.

Molecule `COc1ccc(CN2C3CC2CN(c2ccc(-c4nc(-c5ccncc5)cc5ncccc45)cn2)C3)cn1` registered an IC50 of 215 nM.

`COc1ccc(CN2C3CC2CN(c2ccc(-c4nc(Cl)cc5ncccc45)cn2)C3)cn1` gave an IC50 of 58.4 nM.

Take `Cn1cc(-c2cc3ncccc3c(-c3ccc(N4CC5CC(C4)N5C(=O)Cc4cccc(Cl)c4)nc3)n2)cn1`: 5.9 nM corresponded to half-maximal inhibition (IC50).

Consider `Cn1cc(-c2cc3ncccc3c(-c3ccc(N4CC5CC(C4)N5Cc4ccc(F)nc4)nc3)n2)cn1`, for which inhibition was half-maximal at 9.3 nM (IC50).

`COc1ccc(CN2C3CC2CN(c2ccc(-c4nc(-c5cnn(C)c5)cc5ncccc45)cn2)C3)cc1N`: half-maximal inhibition (IC50) was put at 176 nM.

`COc1ccc(CN2C3CC2CN(c2ccc(-c4nc(-c5cnn(C)c5)cc5ncccc45)cn2)C3)cc1C(F)(F)F` returned a concentration for half-maximal inhibition (IC50) of 14.7 nM.

`COc1ccc(CN2C3CC2CN(c2ccc(-c4nccc5ncccc45)cn2)C3)cn1` showed an IC50 of 35.8 nM.

Take `Cn1cc(-c2cc3ncccc3c(-c3ccc(N4CC5CC(C4)N5C(=O)CN4CCOCC4)nc3)n2)cn1`: the IC50 came to 107 nM.

Regarding `COc1ccc(CN2C3CC2CN(c2ccc(-c4nc(-c5cnn(C)c5)cc5ncccc45)cn2)C3)cc1`, half-maximal inhibition (IC50) was put at 4.7 nM.

The target of a further assay is Proto-oncogene tyrosine-protein kinase receptor Ret (Homo sapiens, UniProt P07949, G810R). Put plainly: Inhibition of RET G810R mutant (unknown origin) by FRET-based ZLyte kinase assay.
Chain of Proto-oncogene tyrosine-protein kinase receptor Ret (Homo sapiens, UniProt P07949, G810R) (P07949 29-1114 G810R limits assumed): as the sequence (P07949 29-1114 V804L limits assumed) above, with L776V, G782R counted along it
The molecule `COc1ccc(CN2C3CC2CN(c2ccc(-c4nc(C5CC5)cc5ncccc45)cn2)C3)cn1` had an IC50 of 538 nM.

Regarding `COc1ccc(CN2C3CC2CN(c2ccc(-c4nc(-c5cc[nH]n5)cc5ncccc45)cn2)C3)cn1`, it took 109 nM to reach half-maximal inhibition (IC50).

On to `Cn1cc(-c2cc3ncccc3c(-c3ccc(N4CC5CC(C4)N5Cc4ccc(Cl)nc4)nc3)n2)cn1`, for which the IC50 was found to be 361 nM.

`COc1ccc(CN2C3CC2CN(c2ccc(-c4nc(-c5cnn(C)c5)cc5ncccc45)cn2)C3)cc1Br`: the half-maximal inhibitory concentration (IC50) was found to be 107 nM.

For the molecule `COc1ccc(CN2C3CC2CN(c2ccc(-c4nc(-c5cn[nH]c5)cc5ncccc45)cn2)C3)cn1`, 69.1 nM corresponded to half-maximal inhibition (IC50).

Consider `COc1ccc(CN2C3CC2CN(c2ccc(-c4nc(Cl)cc5ncccc45)cn2)C3)cn1`, for which the IC50 was determined as 229 nM.

`Cn1cc(-c2cc3ncccc3c(-c3ccc(N4CC5CC(C4)N5C(=O)Cc4cccc(Cl)c4)nc3)n2)cn1`: half-maximal inhibition (IC50) was put at 180 nM.

`Cn1cc(-c2cc3ncccc3c(-c3ccc(N4CC5CC(C4)N5Cc4ccc(F)nc4)nc3)n2)cn1` displayed a half-inhibitory concentration (IC50) of 237 nM.

With `COc1ccc(CN2C3CC2CN(c2ccc(-c4nc(-c5cnn(C)c5)cc5ncccc45)cn2)C3)cc1C(F)(F)F`, the IC50 turned out to be 116 nM.

In turn, `COc1ccc(CN2C3CC2CN(c2ccc(-c4nccc5ncccc45)cn2)C3)cn1` showed a half-inhibitory concentration (IC50) of 186 nM.

Consider `COc1ccc(CN2C3CC2CN(c2ccc(-c4nc(-c5cnn(C)c5)cc5ncccc45)cn2)C3)cc1`, for which the IC50 turned out to be 114 nM.

The test system of a further assay is Proto-oncogene tyrosine-protein kinase receptor Ret (Homo sapiens), P07949 [G810R]. The assay can be described thus: Potency index, ratio of selpercatinib IC50 to test compound IC50 for inhibition of RET G810R mutant (unknown origin) by FRET-based ZLyte kinase assay.
Chain of Proto-oncogene tyrosine-protein kinase receptor Ret (Homo sapiens), P07949 [G810R] (P07949 whole entry G810R): as the sequence (P07949 whole entry) above, with G810R counted along it
Take `COc1ccc(CN2C3CC2CN(c2ccc(-c4nc(-c5cn[nH]c5)cc5ncccc45)cn2)C3)cn1`: the Ratio IC50 came out at 4.

The next assay shares this test system. The assay can be described thus: Potency index, ratio of Vandetanib IC50 to test compound IC50 for inhibition of RET G810R mutant (unknown origin) by FRET-based ZLyte kinase assay.
Regarding `COc1ccc(CN2C3CC2CN(c2ccc(-c4nccc5ncccc45)cn2)C3)cn1`, the Ratio IC50 turned out to be 4.

For the next assay, the system named is Proto-oncogene tyrosine-protein kinase receptor Ret (Homo sapiens), P07949 [V804L]. Put plainly: Potency index, ratio of Vandetanib IC50 to test compound IC50 for inhibition of RET V804L mutant (unknown origin) by FRET-based ZLyte kinase assay.
Chain of Proto-oncogene tyrosine-protein kinase receptor Ret (Homo sapiens), P07949 [V804L] (P07949 whole entry V804L): as the sequence (P07949 whole entry) above, with V804L counted along it
Take `COc1ccc(CN2C3CC2CN(c2ccc(-c4nccc5ncccc45)cn2)C3)cn1`: the Ratio IC50 is 16.
